According to ChEMBL document CHEMBL4417633, “Inhibitory polypeptides specific to WNT inhibitors” (2017):
Where a SMILES comes first, the peptide text is derived from it.

Assays:
[1] = biological target: T1, Dickkopf-related protein 1 (Homo sapiens, UniProt O94907); assay: Inhibition of biotin-labeled human recombinant DKK1 assessed as reduction in DKK1 interaction with LRP-6/Fc incubated overnight by chemiluminescence based Alpha-screen assay
T1 sequence (O94907 whole entry): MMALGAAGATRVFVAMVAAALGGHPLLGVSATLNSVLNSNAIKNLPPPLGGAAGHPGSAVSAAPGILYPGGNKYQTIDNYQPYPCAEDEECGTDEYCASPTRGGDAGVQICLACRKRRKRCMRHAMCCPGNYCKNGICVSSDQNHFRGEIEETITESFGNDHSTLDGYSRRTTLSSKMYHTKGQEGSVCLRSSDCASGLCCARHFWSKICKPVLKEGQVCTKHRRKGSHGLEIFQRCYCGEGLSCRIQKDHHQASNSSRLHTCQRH

[2] = biological target: T2, Dickkopf WNT-signaling pathway inhibitor 1 (Rattus norvegicus, UniProt A6I0Z0); assay: Inhibition of biotin-labeled rat recombinant DKK1 assessed as reduction in DKK1 interaction with LRP-6/Fc incubated overnight by chemiluminescence based Alpha-screen assay
T2 sequence (A6I0Z0 whole entry): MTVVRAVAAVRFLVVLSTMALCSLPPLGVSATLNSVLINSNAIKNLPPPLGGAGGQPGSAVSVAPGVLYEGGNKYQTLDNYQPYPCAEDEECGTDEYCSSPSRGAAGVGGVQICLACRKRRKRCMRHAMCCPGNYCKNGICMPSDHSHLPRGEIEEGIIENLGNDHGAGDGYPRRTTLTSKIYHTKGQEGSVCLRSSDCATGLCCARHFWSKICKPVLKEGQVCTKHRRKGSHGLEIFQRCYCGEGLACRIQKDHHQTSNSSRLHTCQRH

Row | Structure (SMILES) | IC50 [1] [nM] | IC50 [2] [nM]
1 | CSCC[C@H](NC(=O)[C@@H]1CCCN1C(=O)[C@H](Cc1ccc(O)cc1)NC(=O)[C@H](CS)NC(=O)[C@H](Cc1cnc[nH]1)NC(=O)[C@H](CCCCN)NC(=O)[C@H](Cc1ccccc1)NC(=O)[C@H](CC(N)=O)NC(=O)[C@H](Cc1c[nH]c2ccccc12)NC(=O)[C@H](CS)NC(=O)[C@H](CCC(N)=O)NC(=O)[C@H](Cc1ccccc1)NC(=O)[C@H](Cc1ccc(O)cc1)NC(=O)[C@H](CO)NC(=O)[C@H](C)NC(=O)[C@@H]1CCCN1C(=O)[C@@H](N)CS)C(=O)N[C@@H](CCC(=O)O)C(=O)N[C@@H](Cc1c[nH]c2ccccc12)C(=O)N[C@@H](CCCNC(=N)N)C(=O)N[C@@H](CS)C(=O)N[C@@H](CC(=O)O)C(=O)NCC(=O)N[C@@H](Cc1ccccc1)C(=O)N[C@@H](CC(N)=O)C(=O)N[C@@H](CC(=O)O)C(=O)N[C@@H](CS)C(=O)N[C@H](C(=O)N[C@@H](CC(=O)O)C(=O)NCC(=O)N[C@@H](CO)C(=O)N[C@@H](CC(=O)O)C(=O)N[C@@H](CCC(=O)O)C(=O)N[C@@H](CCCCN)C(=O)NCC(=O)N[C@@H](CS)C(=O)N1CCC[C@H]1C(=O)N[C@@H](Cc1ccc(O)cc1)C(=O)N[C@@H](CCCNC(=N)N)C(=O)N[C@H](C(=O)O)[C@@H](C)O)C(C)C (H-CPASYFQCWNFKHCYPMEWRCDGFNDCVDGSDEKGCPYRT-OH) | ≤ 1 | ≤ 1
2 | CC[C@H](C)[C@H](NC(=O)[C@H](CC(=O)O)NC(=O)CNC(=O)[C@H](CC(=O)O)NC(=O)[C@H](CS)NC(=O)[C@H](CC(C)C)NC(=O)[C@H](Cc1ccccc1)NC(=O)[C@H](CO)NC(=O)[C@H](Cc1ccccc1)NC(=O)[C@@H]1CCCN1C(=O)[C@H](Cc1ccccc1)NC(=O)[C@H](CS)NC(=O)[C@@H](NC(=O)[C@H](CCCCN)NC(=O)[C@H](CC(=O)O)NC(=O)[C@H](C)NC(=O)[C@H](CS)NC(=O)[C@H](CCSC)NC(=O)[C@H](Cc1ccccc1)NC(=O)[C@H](CCC(=O)O)NC(=O)[C@H](CC(N)=O)NC(=O)[C@H](CCC(N)=O)NC(=O)[C@@H]1CCCN1C(=O)[C@@H](N)CS)[C@@H](C)O)C(=O)N[C@@H](CC(=O)O)C(=O)N[C@@H](CS)C(=O)N[C@@H](Cc1ccc(O)cc1)C(=O)N[C@@H](CC(=O)O)C(=O)NCC(=O)N[C@@H](CO)C(=O)N[C@@H](CC(=O)O)C(=O)N[C@@H](CCC(=O)O)C(=O)N[C@@H](C)C(=O)N[C@@H](Cc1ccc(O)cc1)C(=O)N[C@@H](CS)C(=O)N1CCC[C@H]1C(=O)N[C@@H](CO)C(=O)N[C@@H](CCCNC(=N)N)C(=O)N[C@H](C(=O)O)[C@@H](C)O (H-CPQNEFMCADKTCFPFSFLCDGDIDCYDGSDEAYCPSRT-OH) | ≤ 1 | ≤ 1
3 | CSCC[C@H](NC(=O)[C@@H]1CCCN1C(=O)[C@H](Cc1ccc(O)cc1)NC(=O)[C@H](CS)NC(=O)[C@H](Cc1cnc[nH]1)NC(=O)[C@H](CC(N)=O)NC(=O)[C@H](CC(C)C)NC(=O)[C@H](Cc1cnc[nH]1)NC(=O)[C@H](CCCNC(=N)N)NC(=O)[C@H](CS)NC(=O)[C@H](CCCNC(=N)N)NC(=O)[C@H](Cc1ccccc1)NC(=O)[C@H](Cc1ccc(O)cc1)NC(=O)[C@H](CO)NC(=O)[C@@H](NC(=O)[C@@H]1CCCN1C(=O)[C@@H](N)CS)C(C)C)C(=O)N[C@@H](CCC(=O)O)C(=O)N[C@@H](Cc1c[nH]c2ccccc12)C(=O)N[C@@H](CCCNC(=N)N)C(=O)N[C@@H](CS)C(=O)N[C@@H](CC(=O)O)C(=O)NCC(=O)N[C@@H](Cc1ccccc1)C(=O)N[C@@H](CC(C)C)C(=O)N[C@@H](CC(=O)O)C(=O)N[C@@H](CS)C(=O)N[C@H](C(=O)N[C@@H](CC(=O)O)C(=O)NCC(=O)N[C@@H](CO)C(=O)N[C@@H](CC(=O)O)C(=O)N[C@@H](CCC(=O)O)C(=O)N[C@@H](CCC(=O)O)C(=O)NCC(=O)N[C@@H](CS)C(=O)N1CCC[C@H]1C(=O)N[C@@H](Cc1ccc(O)cc1)C(=O)N[C@@H](CCCNC(=N)N)C(=O)N[C@H](C(=O)O)[C@@H](C)O)C(C)C (H-CPVSYFRCRHLNHCYPMEWRCDGFLDCVDGSDEEGCPYRT-OH) | ≤ 1 | ≤ 1
4 | CC[C@H](C)[C@H](NC(=O)[C@H](CCCCN)NC(=O)[C@H](CC(=O)O)NC(=O)[C@@H]1CCCN1C(=O)[C@H](CS)NC(=O)[C@H](CCSC)NC(=O)[C@H](Cc1ccccc1)NC(=O)[C@H](CCC(=O)O)NC(=O)[C@H](CC(N)=O)NC(=O)[C@H](CO)NC(=O)[C@@H]1CCCN1C(=O)[C@@H](N)CS)C(=O)N[C@@H](CS)C(=O)N[C@@H](Cc1ccccc1)C(=O)N1CCC[C@H]1C(=O)N[C@@H](CC(C)C)C(=O)N[C@@H](CO)C(=O)N[C@@H](Cc1ccccc1)C(=O)N[C@@H](CC(C)C)C(=O)N[C@@H](CS)C(=O)N[C@@H](CC(=O)O)C(=O)NCC(=O)N[C@@H](CCC(=O)O)C(=O)N[C@@H](CC(N)=O)C(=O)N[C@@H](CC(=O)O)C(=O)N[C@@H](CS)C(=O)N[C@@H](CCC(=O)O)C(=O)N[C@@H](CC(=O)O)C(=O)NCC(=O)N[C@@H](CO)C(=O)N[C@@H](CC(=O)O)C(=O)N[C@@H](CCC(=O)O)C(=O)N[C@@H](CC(=O)O)C(=O)N[C@@H](Cc1ccc(O)cc1)C(=O)N[C@@H](CS)C(=O)N1CCC[C@H]1C(=O)N[C@@H](CO)C(=O)N[C@@H](CCCNC(=N)N)C(=O)N[C@H](C(=O)O)[C@@H](C)O (H-CPSNEFMCPDKICFPLSFLCDGENDCEDGSDEDYCPSRT-OH) | ≤ 1 | ≤ 1
5 | CC[C@H](C)[C@H](NC(=O)[C@H](CC(N)=O)NC(=O)CNC(=O)[C@H](CS)NC(=O)[C@H](CCC(N)=O)NC(=O)[C@H](Cc1ccccc1)NC(=O)[C@H](Cc1ccc(O)cc1)NC(=O)[C@H](CO)NC(=O)[C@H](C)NC(=O)[C@@H]1CCCN1C(=O)[C@@H](N)CS)C(=O)N[C@@H](CC(N)=O)C(=O)N[C@@H](Cc1cnc[nH]1)C(=O)N[C@@H](CS)C(=O)N[C@@H](Cc1ccc(O)cc1)C(=O)N1CCC[C@H]1C(=O)N[C@H](C(=O)N[C@@H](CCC(=O)O)C(=O)N[C@@H](Cc1c[nH]c2ccccc12)C(=O)N[C@@H](CCCNC(=N)N)C(=O)N[C@@H](CS)C(=O)N[C@@H](CC(=O)O)C(=O)NCC(=O)N[C@@H](Cc1ccccc1)C(=O)N[C@@H](CCC(N)=O)C(=O)N[C@@H](CC(=O)O)C(=O)N[C@@H](CS)C(=O)N[C@@H](CC(=O)O)C(=O)N[C@@H](CC(=O)O)C(=O)NCC(=O)N[C@@H](CO)C(=O)N[C@@H](CC(=O)O)C(=O)N[C@@H](CCC(=O)O)C(=O)N[C@@H](Cc1ccc(O)cc1)C(=O)N[C@H](C(=O)N[C@@H](CS)C(=O)N1CCC[C@H]1C(=O)N[C@@H](Cc1ccc(O)cc1)C(=O)N[C@@H](CCCNC(=N)N)C(=O)N[C@H](C(=O)O)[C@@H](C)O)C(C)C)C(C)C (H-CPASYFQCGNINHCYPVEWRCDGFQDCDDGSDEYVCPYRT-OH) | ≤ 1 | ≤ 1
6 | CSCC[C@H](NC(=O)[C@@H]1CCCN1C(=O)[C@H](Cc1ccc(O)cc1)NC(=O)[C@H](CS)NC(=O)[C@H](Cc1cnc[nH]1)NC(=O)[C@H](CC(N)=O)NC(=O)[C@H](Cc1ccc(O)cc1)NC(=O)[C@H](CC(N)=O)NC(=O)[C@H](CCCNC(=N)N)NC(=O)[C@H](CS)NC(=O)[C@H](CCCCN)NC(=O)[C@H](Cc1ccccc1)NC(=O)[C@H](Cc1ccc(O)cc1)NC(=O)[C@H](CO)NC(=O)[C@H](C)NC(=O)[C@@H]1CCCN1C(=O)[C@@H](N)CS)C(=O)N[C@@H](CCC(=O)O)C(=O)N[C@@H](Cc1c[nH]c2ccccc12)C(=O)N[C@@H](CCCNC(=N)N)C(=O)N[C@@H](CS)C(=O)N[C@@H](CC(=O)O)C(=O)NCC(=O)N[C@@H](Cc1ccccc1)C(=O)N[C@@H](CCCNC(=N)N)C(=O)N[C@@H](CC(=O)O)C(=O)N[C@@H](CS)C(=O)N[C@@H](CCC(=O)O)C(=O)N[C@@H](CC(=O)O)C(=O)NCC(=O)N[C@@H](CO)C(=O)N[C@@H](CC(=O)O)C(=O)N[C@@H](CCC(=O)O)C(=O)N[C@@H](CCC(=O)O)C(=O)NCC(=O)N[C@@H](CS)C(=O)N1CCC[C@H]1C(=O)N[C@@H](Cc1ccc(O)cc1)C(=O)N[C@@H](CCCNC(=N)N)C(=O)N[C@H](C(=O)O)[C@@H](C)O (H-CPASYFKCRNYNHCYPMEWRCDGFRDCEDGSDEEGCPYRT-OH) | ≤ 1 | ≤ 1
7 | CC[C@H](C)[C@H](NC(=O)[C@H](CC(C)C)NC(=O)[C@@H]1CCCN1C(=O)[C@H](Cc1ccccc1)NC(=O)[C@H](CS)NC(=O)[C@H](CCSC)NC(=O)[C@H](CCCCN)NC(=O)[C@H](CC(=O)O)NC(=O)[C@@H]1CCCN1C(=O)[C@H](CS)NC(=O)[C@H](CCSC)NC(=O)[C@H](Cc1ccccc1)NC(=O)[C@H](CCC(=O)O)NC(=O)[C@H](CC(N)=O)NC(=O)[C@H](CC(C)C)NC(=O)[C@@H]1CCCN1C(=O)[C@@H](N)CS)C(=O)N[C@@H](Cc1ccccc1)C(=O)N[C@@H](CC(C)C)C(=O)N[C@@H](CS)C(=O)N[C@@H](CC(=O)O)C(=O)NCC(=O)N[C@@H](CCC(=O)O)C(=O)N[C@@H](CC(N)=O)C(=O)N[C@@H](CC(=O)O)C(=O)N[C@@H](CS)C(=O)N[C@@H](Cc1cnc[nH]1)C(=O)N[C@@H](CC(=O)O)C(=O)NCC(=O)N[C@@H](CO)C(=O)N[C@@H](CC(=O)O)C(=O)N[C@@H](CCC(=O)O)C(=O)N[C@@H](C)C(=O)N[C@@H](Cc1ccc(O)cc1)C(=O)N[C@@H](CS)C(=O)N1CCC[C@H]1C(=O)N[C@@H](CO)C(=O)N[C@@H](CCCNC(=N)N)C(=O)N[C@H](C(=O)O)[C@@H](C)O (H-CPLNEFMCPDKMCFPLIFLCDGENDCHDGSDEAYCPSRT-OH) | ≤ 1 | ≤ 1
